Results reported in EP4768499A1, “MACROCYCLIC PEPTIDE COMPOUND HAVING CELL MEMBRANE PERMEABILITY AND METABOLIC STABILITY, AND LIBRARY CONTAINING SAME” (Chugai Seiyaku Kabushiki Kaisha, priority 2023, dated 2025).
Like-named read-outs stand apart in the source and are kept apart here. Starred links: 1 amine or outer side, 2 acyl side, 3 side chain; linkers in the order of their positions; H or OH if unused. Non-standard residues stand in square brackets, D forms with d. Residues, ends and D or L forms follow the SMILES beside them. *: point of attachment. NMedβ3hAla = C[C@H](CC(=O)[*:2])N(C)[*:1]; NMeF = CN[C@@H](Cc1ccccc1)C(=O)O; NMeI = CC[C@H](C)[C@H](NC)C(=O)O; NMeT = CN[C@H](C(=O)O)[C@@H](C)O; hPhe = N[C@@H](CCc1ccccc1)C(=O)O; NMeβAla = CN(CCC(=O)[*:2])[*:1]; NMeL = CN[C@@H](CC(C)C)C(=O)O; NMeV = CN[C@H](C(=O)O)C(C)C; d(β3hA) = C[C@@H](N)CC(=O)O; NMeAbu = CC[C@H](NC)C(=O)O; Abu = CC[C@H](N)C(=O)O; Sar = CNCC(=O)O; tBu = CC(C)(C)*

Key:
[1] = Metabolic stability test: liver microsomal stability assay; type: in vitro ADME, mouse; conditions: for microsomal CLint at 1 µM: male, pH 7.4, presence of NADPH, read-out: Mouse Hepatic Microsome CLh,int NADPH(+)
[2] = Membrane permeability test using Caco-2 cells with preincubation; type: in vitro ADME; conditions: Caco-2
Caco-2 cells = assay: as above; type: in vitro ADME
[3] = Mouse PK test: plasma concentration after intravenous or oral administration; type: in vivo, mice (C57BL/6J); conditions: C57BL/6J
Description: We evaluated the plasma concentration changes after intravenous or oral administration of four types of peptides that satisfy these conditions to mice.
To male mice (C57BL/6J, 10 weeks old, purchased from Charles River Laboratories Japan, Inc.: 3 mice per group), the compound was administered intravenously at a dose of 1 mg/kg or orally at a dose of 50 mg/kg, and blood was collected from the jugular vein over time up to 24 hours after administration. The collected blood was dispensed into tubes that were pre-treated with heparin as an anticoagulant. Plasma was separated from the blood by centrifugation, and after deproteinization with acetonitrile, the plasma concentration of the compound was measured with an LC/MS/MS device (XEVO TQ-XS, manufactured by Waters Corporation).

[4] = mouse liver microsomes 0.5 mg protein/mL, compound 1 µM
[5] = mouse liver microsomes 0.5 mg protein/mL, compound 1 µM, absence of NADPH
[6] = preincubation 20 to 24 hours, Apical FaSSIF/HBSS pH 6.0, Basal HBSS 4% BSA pH 7.4, 180 minutes, read-out: Caco2 Papp
[7] = Caco-2 cells, preincubation 20 to 24 hours, apical FaSSIF/HBSS 1% DMSO pH 6.0, basal HBSS 4% BSA pH 7.4, basal sample at 180 minutes
[8] = plasma, male mice, intravenous administration, 1 mg/kg, read-out: AUCinf
[9] = plasma, male mice, intravenous administration, 1 mg/kg, read-out: CL
[10] = plasma, male mice, intravenous administration, 1 mg/kg, read-out: Vss
[11] = plasma, male mice, intravenous administration, 1 mg/kg, read-out: t1/2 (converted)
[12] = plasma, male mice, oral 50 mg/kg vs intravenous 1 mg/kg, bioavailability, read-out: F
[13] = plasma, male mice, oral administration, 50 mg/kg, read-out: AUCinf
[14] = plasma, male mice, oral administration, 50 mg/kg, read-out: Cmax
[15] = plasma, male mice, oral administration, 50 mg/kg, read-out: Tmax
[16] = plasma, male mice, oral administration, 50 mg/kg, read-out: t1/2 (converted)

Q: What does the source list for `CC[C@H](C)[C@@H]1NC(=O)[C@H](CC(C)C)N(C)C(=O)C[C@@H](C)NC(=O)[C@H](C(C)C)N(C)C(=O)[C@H](COC(C)(C)C)NC(=O)[C@H](CC)N(C)C(=O)[C@H](Cc2ccccc2)N(C)C(=O)[C@H](CC(C)C)NC(=O)[C@@H]2CCCN2C(=O)[C@H]([C@@H](C)O)N(C)C(=O)[C@H](CC(C)C)N(C)C(=O)[C@H](CC)N(C)C(=O)[C@H](C(C)C)NC(=O)[C@H](CC(C)C)N(C)C1=O` [pd057] (cyclo(I[NMeL]V[NMeAbu][NMeL][NMeT]PL[NMeF][NMeAbu]S(tBu)[NMeV][d(β3hA)][NMeL]))?
A: microsomal CLint at 1 µM [1, 4]: 50.4 µL/min/mg; Mouse Hepatic Microsome CLh,int NADPH(-) [1, 5]: 44.8 µL/min/mg Protein; Papp A→B [2, 6]: 1.16 ×10⁻⁶ cm/s; Caco2 Papp (10^-6 cm/sec) (Caco-2 cells; [7]): 1.16 10^-6 cm/sec; AUC(0-inf) [3, 8]: 1200 ng·h/mL; clearance [3, 9]: 14 mL/min/kg; Vd [3, 10]: 11 L/kg; half-life [3, 11]: 12 h; bioavailability [3, 12]: 33%; AUC(0-inf) [3, 13]: 20000 ng·h/mL; Cmax [3, 14]: 2200 ng/mL; Tmax [3, 15]: 2.7 h; half-life [3, 16]: 6.6 h

Q: For `CC[C@@H]1NC(=O)[C@H](CC(C)C)N(C)C(=O)[C@H](COC(C)(C)C)NC(=O)[C@H]([C@@H](C)CC)N(C)C(=O)[C@H](CCc2ccccc2)NC(=O)[C@H](Cc2ccccc2)N(C)C(=O)[C@H](C(C)C)NC(=O)[C@H](CC(C)C)N(C)C(=O)[C@H](CC(C)C)NC(=O)CCN(C)C(=O)C[C@@H](C)N(C)C(=O)CN(C)C(=O)[C@H](CC(C)C)N(C)C(=O)[C@@H]2CCCN2C1=O` [pd065] (cyclo([Abu]P[NMeL][Sar][NMedβ3hAla][NMeβAla]L[NMeL]V[NMeF][hPhe][NMeI]S(tBu)[NMeL])), which microsomal CLint at 1 µM [1, 4] is on record?
A: 41.7 µL/min/mg

Q: And the “Mouse Hepatic Microsome CLh,int NADPH(-)” value [1, 5]?
A: 40.2 µL/min/mg Protein

Q: What about the Papp A→B [2, 6] of the same compound?
A: 0.54 ×10⁻⁶ cm/s

Q: What about the “Caco2 Papp (10^-6 cm/sec)” value (Caco-2 cells; [7]) of the same compound?
A: 0.54 10^-6 cm/sec

Q: And the AUC(0-inf) ([3]; in vivo, male mice, intravenous administration, 1 mg/kg, read-out: AUCinf)?
A: 8700 ng·h/mL

Q: What about the clearance ([3]; in vivo, male mice, intravenous administration, 1 mg/kg, read-out: CL) of the same compound?
A: 1.9 mL/min/kg

Q: What about the Vd ([3]; in vivo, male mice, intravenous administration, 1 mg/kg, read-out: Vss) of the same compound?
A: 0.57 L/kg

Q: What about the half-life ([3]; in vivo, male mice, intravenous administration, 1 mg/kg, read-out: t1/2 (converted)) of the same compound?
A: 5.4 h

Q: What about the bioavailability ([3]; in vivo, male mice, oral 50 mg/kg vs intravenous 1 mg/kg, bioavailability, read-out: F) of the same compound?
A: 26%

Q: And the AUC(0-inf) ([3]; in vivo, male mice, oral administration, 50 mg/kg, read-out: AUCinf)?
A: 110000 ng·h/mL

Q: And the Cmax ([3]; in vivo, male mice, oral administration, 50 mg/kg, read-out: Cmax)?
A: 11000 ng/mL

Q: And the Tmax ([3]; in vivo, male mice, oral administration, 50 mg/kg, read-out: Tmax)?
A: 2.7 h

Q: What about the half-life ([3]; in vivo, male mice, oral administration, 50 mg/kg, read-out: t1/2 (converted)) of the same compound?
A: 5.8 h

Q: Which results are given for `CC[C@@H]1NC(=O)[C@H](CC(C)C)N(C)C(=O)[C@H]([C@@H](C)CC)NC(=O)[C@H](CC(C)C)N(C)C(=O)C[C@@H](C)NC(=O)[C@H](C(C)C)N(C)C(=O)[C@H](CC(C)C)NC(=O)[C@H](CC)N(C)C(=O)[C@H](Cc2ccccc2)N(C)C(=O)[C@@H]2CCCN2C(=O)[C@H](CC(C)C)NC(=O)[C@H]([C@@H](C)O)N(C)C(=O)[C@H](CC(C)C)N(C)C1=O` [pd135] (cyclo([Abu][NMeL][NMeT]LP[NMeF][NMeAbu]L[NMeV][d(β3hA)][NMeL]I[NMeL]))?
A: microsomal CLint at 1 µM [1, 4]: 39.5 µL/min/mg; Mouse Hepatic Microsome CLh,int NADPH(-) [1, 5]: 28.4 µL/min/mg Protein; Papp A→B [2, 6]: 1.95 ×10⁻⁶ cm/s; Caco2 Papp (10^-6 cm/sec) (Caco-2 cells; [7]): 1.95 10^-6 cm/sec; AUC(0-inf) [3, 8]: 10000 ng·h/mL; clearance [3, 9]: 1.7 mL/min/kg; Vd [3, 10]: 0.81 L/kg; half-life [3, 11]: 6.4 h; bioavailability [3, 12]: 16%; AUC(0-inf) [3, 13]: 79000 ng·h/mL; Cmax [3, 14]: 7000 ng/mL; Tmax [3, 15]: 1.7 h; half-life [3, 16]: 7.6 h

Q: For `CC[C@H](C)[C@H]1C(=O)N[C@@H](CC(C)C)C(=O)N(C)CC(=O)N(C)[C@@H](CC(C)C)C(=O)N[C@@H](CC(C)C)C(=O)N(C)[C@H](C)CC(=O)N(C)[C@@H](CC(C)C)C(=O)N(C)CCC(=O)N(C)[C@@H](CC(C)C)C(=O)N[C@@H](COC(C)(C)C)C(=O)N(C)[C@@H](Cc2ccccc2)C(=O)N(C)CCC(=O)N(C)[C@@H](Cc2ccccc2)C(=O)N1C` [pd144] (cyclo(L[Sar][NMeL]L[NMedβ3hAla][NMeL][NMeβAla][NMeL]S(tBu)[NMeF][NMeβAla][NMeF][NMeI])), which “Mouse Hepatic Microsome CLh,int NADPH(-)” value [1] is on record?
A: 34.0 µL/min/mg Protein

Q: What about the Papp A→B [2] of the same compound?
A: 1.28 ×10⁻⁶ cm/s

Q: And the “Caco2 Papp (10^-6 cm/sec)” value (Caco-2 cells; Caco-2)?
A: 1.28 10^-6 cm/sec

Q: What about the AUC(0-inf) ([3]; male, in vivo, iv, 1 mg/kg) of the same compound?
A: 3500 ng·h/mL

Q: And the Vd ([3]; male, in vivo, iv, 1 mg/kg)?
A: 1.6 L/kg

Q: And the clearance ([3]; male, in vivo, iv, 1 mg/kg)?
A: 4.9 mL/min/kg

Q: What about the half-life ([3]; male, in vivo, iv, 1 mg/kg) of the same compound?
A: 5.3 h

Q: And the bioavailability ([3]; male, in vivo, po)?
A: 40%

Q: And the AUC(0-inf) ([3]; male, in vivo, po, 50 mg/kg)?
A: 71000 ng·h/mL

Q: What about the Cmax ([3]; male, in vivo, po, 50 mg/kg) of the same compound?
A: 7000 ng/mL

Q: And the Tmax ([3]; male, in vivo, po, 50 mg/kg)?
A: 1.3 h

Q: What about the half-life ([3]; male, in vivo, po, 50 mg/kg) of the same compound?
A: 9.7 h
